The test system of test [1] is HepG2. Nature of the test: Antiproliferative activity against human HepG2 cells after 48 hrs by MTT assay. The test is classed as functional, cell-based. The conditions noted are these: HepG2, 48 h. On the technique in general: Tetrazolium assays rely on reduction of a dye to a coloured formazan, in cell work by metabolically active cells.
Test [2] has as its system HepG2. Nature of the test: Antiproliferative activity against human HepG2 cells assessed as cell growth inhibition at 100 nM after 48 hrs by MTT assay relative to swinholide-A. The test is classed as functional.

Molecules are shown by their SMILES.

Six compounds from ChEMBL document CHEMBL2413036, “Isoswinholide B and swinholide K, potently cytotoxic dimeric macrolides from Theonella swinhoei” (Bioorg Med Chem, 2013) can be followed below.

Broadly, the IC50 is the concentration at which inhibition is half-maximal. In the case of `C=C1/C=C/C(=O)O[C@H]([C@@H](C)[C@@H](O)[C@@H](C)CC[C@H]2C[C@H](OC)C[C@H](C)O2)[C@@H](C)[C@H](O)C[C@H](O)[C@H](C)[C@@H](OC)C[C@@H]2CC=C[C@@H](C[C@@H](O)C/C=C(C)/C=C/C(=O)O[C@H]([C@@H](C)[C@@H](O)[C@@H](C)CC[C@H]3C[C@H](OC)C[C@H](C)O3)[C@@H](C)[C@H](O)C[C@H](O)[C@H](C)[C@@H](OC)C[C@@H]3CC=C[C@@H](C[C@@H](O)C[C@H]1O)O3)O2`, inhibition with HepG2 [1] was half-maximal at 0.015 µM (IC50). Besides, the Efficacy in the test with HepG2 [2] is reported as 42.67%.

In the test with HepG2 [1], `CO[C@H]1C[C@H](CC[C@H](C)[C@H](O)[C@H](C)[C@H]2OC(=O)/C=C/C(C)=C/C[C@H](O)C[C@@H]3CCC[C@H](C[C@H](OC)[C@@H](C)[C@@H](O)C[C@@H](O)[C@H](C)[C@H](O)[C@@H](C)[C@H]([C@@H](C)CC[C@H]4C[C@H](OC)C[C@H](C)O4)OC(=O)/C=C/C(C)=C/C[C@H](O)C[C@@H]4C=CC[C@H](C[C@H](OC)[C@@H](C)[C@@H](O)C[C@@H](O)[C@@H]2C)O4)O3)O[C@@H](C)C1` [ISOSWINHOLIDE A] came in with an IC50 of 0.035 µM. Besides, in the test with HepG2 [2], the Efficacy was found to be 16.28%.

In turn, `CO[C@H]1C[C@H](CC[C@H](C)[C@H](O)[C@H](C)[C@@H](O)[C@@H](C)[C@H]2C[C@H](O)[C@H](C)[C@@H](OC)C[C@@H]3CC=C[C@@H](C[C@@H](O)C/C=C(C)/C=C/C(=O)O[C@H]([C@@H](C)[C@@H](O)[C@@H](C)CC[C@H]4C[C@H](OC)C[C@H](C)O4)[C@@H](C)[C@H](O)C[C@H](O)[C@H](C)[C@@H](OC)C[C@@H]4CC=C[C@@H](C[C@@H](O)C/C=C(C)/C=C/C(=O)O2)O4)O3)O[C@@H](C)C1` had an IC50 in the test with HepG2 [1] of 1.5 µM. Besides, the Efficacy with HepG2 [2] was 7.52%.

`CO[C@@H]1C[C@@H](O)C[C@@H](O)[C@H](C)[C@@H]([C@@H](C)[C@@H](O)[C@@H](C)CC[C@H]2C[C@H](OC)C[C@H](C)O2)OC(=O)/C=C/C(C)=C/C[C@H](O)C[C@@H]2C=CC[C@H](C[C@H](OC)[C@@H](C)[C@@H](O)C[C@@H](O)[C@H](C)[C@@H]([C@@H](C)[C@@H](O)[C@@H](C)CC[C@H]3C[C@H](OC)C[C@H](C)O3)OC(=O)/C=C/C(C)=C/C[C@H](O)C[C@@H]3CCC[C@H](C1)O3)O2` [SWINHOLIDE B]: the IC50 in the test with HepG2 [1] is 0.025 µM. Also, the Efficacy in the test with HepG2 [2] worked out at 89.38%.

As to `CO[C@H]1C[C@H](CC[C@H](C)[C@H](O)[C@H](C)[C@H]2OC(=O)/C=C/C(C)=C/C[C@H](O)C[C@@H]3C=CC[C@@H](C[C@H](OC)[C@@H](C)[C@@H](O)C[C@@H](O)[C@H](C)[C@@H]([C@@H](C)[C@@H](O)[C@@H](C)CC[C@H]4C[C@H](OC)C[C@H](C)O4)OC(=O)/C=C/C(C)=C/C[C@H](O)C[C@@H]4C=CC[C@@H](C[C@H](O)[C@@H](C)[C@@H](O)C[C@@H](O)[C@@H]2C)O4)O3)O[C@@H](C)C1`, in the test with HepG2 [1], half-maximal inhibition (IC50) required 0.03 µM. Also, the Efficacy in the test on HepG2 [2] is listed as 45.35%.

Consider `CO[C@H]1C[C@H](CC[C@H](C)[C@H](O)[C@H](C)[C@H]2OC(=O)/C=C/C(C)=C/C[C@H](O)C[C@@H]3C=CC[C@@H](C[C@H](OC)[C@@H](C)[C@@H](O)C[C@@H](O)[C@H](C)[C@@H]([C@@H](C)[C@@H](O)[C@@H](C)CC[C@H]4C[C@H](OC)C[C@H](C)O4)OC(=O)/C=C/C(C)=C/C[C@H](O)C[C@@H]4C=CC[C@@H](C[C@H](OC)[C@@H](C)[C@@H](O)C[C@@H](O)[C@@H]2C)O4)O3)O[C@@H](C)C1` [Swinholide A], for which inhibition with HepG2 [1] was half-maximal at 0.02 µM (IC50). This lies in the double-digit nanomolar range.
